Results reported in US20080248134A1, “Oral compositions, use and combinations of N-[2-(dimethylamino)ethyl]-2,6 dimethyl-1-oxo-1,2-dihydrobenzo[b]-1,6-naphthyridine-4-carboxamide and closely related analogues thereof” (Auckland Uniservices Limited, priority 2005, published 2008).
“Also recorded” adds a separate entry of the source.

Key:
[1] = system: NZM4 melanoma line (mutant p53); test: Induction of cell cycle arrest, flow cytometry; type: cell-based, human; details: NZM4, 0.3 μM for one hour, grown up to 9 days
Method: (§1) Flow cytometry was used to determine the magnitude and duration of cell cycle arrest induced by the compound of the present invention. Two human melanoma lines were used in a preliminary study, one having wild-type p53 status (NZM6) and one having mutant p53 status (NZM4). Cells were exposed to the compound of Formula II for one hour at a concentration of 0.3 μM, washed free of drug and grown for up to a further 9 days.

[2] = system: NZM6 melanoma line (wild-type p53); test: Induction of cell cycle arrest, flow cytometry; type: cell-based, human; details: NZM6, 0.3 μM for one hour, grown up to 9 days
Method: as §1

colon 38 tumours [3] = test: Murine colon 38 tumour response; type: in vivo; details: single oral dose (8.9 mg/kg)
Excerpt: The murine colon-38 carcinoma is a transplantable tumour that has been used extensively in drug development programmes to determine the activity of many different drugs (Goldin A et al. Current results of the screening program at the Division of Cancer Treatment, National Cancer Institute. European Journal of Cancer. 1981. 17(2):129-142). The tumour is implanted subcutaneously as 1-mm^3 fragments and allowed to grow (8 days) to a tumour of approximately 3 mm in diameter before administration of test drugs.

Lewis lung = test: Murine Lewis lung tumour growth delay; type: in vivo; details: intraperitoneal dose of 8.9 mg/kg
Method: In addition, the compound of Formula II, by way of an intraperitoneal dose of 8.9 mg/kg, induced a growth delay of 8.5 days in a murine tumour (Lewis lung) that is also used extensively in drug development programmes.

H460 = test: Human tumour xenograft; type: in vivo; set-up: key to Activity: Active: NCI Criterion for activity tumour volume T/C ≦ 40%; Inactive: NCI Criterion for activity tumour volume T/C ≦ 40%; details: H460, Lung
Method: (§2) The compound of Formula II was evaluated in a number of xenografts using cell lines derived from cervical, endometrial, lung and colon carcinomas, leukaemia and melanoma (Table 3). These studies indicate that the compound according to the present invention has significant activity in xenografts.

HCT116 = test: Human tumour xenograft; type: in vivo; set-up: key to Activity: Active: NCI Criterion for activity tumour volume T/C ≦ 40%; Inactive: NCI Criterion for activity tumour volume T/C ≦ 40%; details: HCT116, Colon
Method: as §2

Jurkat LA = test: Human tumour xenograft; type: in vivo; set-up: key to Activity: Active: NCI Criterion for activity tumour volume T/C ≦ 40%; Inactive: NCI Criterion for activity tumour volume T/C ≦ 40%; details: Leukaemia
Method: as §2

NZC1 = test: Human tumour xenograft; type: in vivo; set-up: key to Activity: Active: NCI Criterion for activity tumour volume T/C ≦ 40%; Inactive: NCI Criterion for activity tumour volume T/C ≦ 40%; details: NZC1, Cervix
Method: as §2

NZEN1 = test: Human tumour xenograft; type: in vivo; set-up: key to Activity: Active: NCI Criterion for activity tumour volume T/C ≦ 40%; Inactive: NCI Criterion for activity tumour volume T/C ≦ 40%; details: NZEN1, Endometrium
Method: as §2

NZM10 = test: Human tumour xenograft; type: in vivo; set-up: key to Activity: Active: NCI Criterion for activity tumour volume T/C ≦ 40%; Inactive: NCI Criterion for activity tumour volume T/C ≦ 40%; details: NZM10, Melanoma
Method: as §2

NZM3 = test: Human tumour xenograft; type: in vivo; set-up: key to Activity: Active: NCI Criterion for activity tumour volume T/C ≦ 40%; Inactive: NCI Criterion for activity tumour volume T/C ≦ 40%; details: NZM3, Melanoma
Method: as §2

NZM4 = test: Human tumour xenograft; type: in vivo; set-up: key to Activity: Active: NCI Criterion for activity tumour volume T/C ≦ 40%; Inactive: NCI Criterion for activity tumour volume T/C ≦ 40%; details: NZM4, Melanoma
Method: as §2

NZMp1 = test: Human tumour xenograft; type: in vivo; set-up: key to Activity: Active: NCI Criterion for activity tumour volume T/C ≦ 40%; Inactive: NCI Criterion for activity tumour volume T/C ≦ 40%; details: NZMp1, Melanoma
Method: as §2

NZMp2 = test: Human tumour xenograft; type: in vivo; set-up: key to Activity: Active: NCI Criterion for activity tumour volume T/C ≦ 40%; Inactive: NCI Criterion for activity tumour volume T/C ≦ 40%; details: NZMp2, Melanoma
Method: as §2

[4] = system: melanoma tissue taken from a patient; test: Response of a melanoma taken directly from a cancer patient, xenograft in immunodeficient mice; type: in vivo, human; details: two doses of 5.9 mg/kg, 7 days apart
Method: Metastatic melanoma is particularly resistant to current chemotherapy. Melanoma tissue taken from a patient at surgery was implanted subcutaneously in immunodeficient mice. After three months, the tumour in one animal was excised and transferred to further immunodeficient mice. The tumours were grown to a diameter of approximately 4 mm before treatment and the compound of Formula II was administered in two doses of 5.9 mg/kg, 7 days apart.

colon 38 tumours [5] = test: Response of colon 38 tumours in immunocompetent and Rag1 immunodeficient mice; type: in vivo
Method: A single dose of 5.9 mg/kg of the compound of Formula II was administered intraperitoneally to immunocompetent mice in A, while a 5.9 mg/kg dose on days 0 and 7 was administered to Rag 1 immunodeficient mice (see FIG. 13). […] Initial tumour response (apoptosis induction) is similar in normal and immunosuppressed mice. The compound of Formula II appears to induce a change in tumour cells that activates a T-cell mediated response leading to tumour regression. This dependence on T-cells for response might explain why only moderate activity of the compound of Formula II is found in xenografts.

[6] = P53 not known, tumour volume T/C

In the case of `Cc1cccc2cc3c(=O)n(C)cc(C(=O)NCCN(C)C)c3nc12` [Formula II, N-[2-(dimethylamino)ethyl]-2,6 dimethyl-1-oxo-1,2-dihydrobenzo[b]-1,6-naphthyridine-4-carboxamide], the cell cycle arrest [1] is reported as “minimal effect in G1-phase but an extended effect in G2-phase”, the cell cycle arrest [2] is reported as “extended arrest of NZM6 cells in both G1- and G2-phase” and the “response of colon 38 tumours” value (colon 38 tumours [3]) is reported as “complete regression; also recorded: single dose cures”. For the same molecule, the growth delay (Lewis lung) was 8.5 days, the Activity (H460) was “Active” and the “% control” value (H460; P53 W.T., tumour volume T/C) was 38%. For the same molecule, the Activity (HCT116) was “Inactive”, the “% control” value (HCT116; P53 W.T., tumour volume T/C) was 70% and the Activity (Jurkat LA) was “Active”. The “% control” value (Jurkat LA; P53 Null, tumour volume T/C) was 28%, the Activity (NZC1) was “Active” and the “% control” value (NZC1; [6]) was 38%. The Activity (NZEN1) was “Inactive”, the “% control” value (NZEN1; [6]) was 50% and the Activity (NZM10) was “Active”. The “% control” value (NZM10; P53 W.T., tumour volume T/C) was 30%, the Activity (NZM3) was “Active” and the “% control” value (NZM3; P53 W.T., tumour volume T/C) was 38%. For the same molecule, the Activity (NZM4) was “Inactive”, the “% control” value (NZM4; P53 Mutant, tumour volume T/C) was 90% and the Activity (NZMp1) was “Active”. The “% control” value (NZMp1; [6]) was less than 10%, the Activity (NZMp2) was “Active” and the “% control” value (NZMp2; tumour volume T/C) was 22%. The melanoma growth [4] was “strong inhibition of melanoma growth”, the “activity against colon 38 tumours” value (colon 38 tumours [5]; Rag1 immunodeficient mice, 5.9 mg/kg on days 0 and 7) was “attenuated” and the “activity against colon 38 tumours” value (colon 38 tumours [5]; immunocompetent mice, single dose of 5.9 mg/kg intraperitoneally) was “active”.
